PMC6261607, “Novel high–throughput myofibroblast assays identify agonists with therapeutic potential in pulmonary fibrosis that act via EP2 and EP4 receptors” (PLoS ONE, 2018)
Read-outs that look alike come from different tables or passages of the source.

Experiments:
[1] = system: COL1 protein in TGF–β1–induced NHLF myofibroblasts; experiment: MS/MS COL1, NHLF myofibroblast reversal assay; assay type: cell-based, human; conditions: Homo sapiens, Col1
Method: (§1) Cell culture medium was removed and cells were lysed on ice by adding 5 μl / well of pre–cooled protein extraction buffer containing 10 mM Tris–HCl (pH 8.0), 6 M urea and 2 M thiourea and shaking on ice on a plate shaker at 600 rpm for 30 min.
(§2) Cell lysate was transferred to a 96–well polypropylene–PCR–plate. 15 μl / well denaturation buffer (6 M urea, 50 mM ammonium bicarbonate) and 2 μl / well of 50 mM TCEP were added and samples were denatured for 1 h at 60°C using the Veriti 96–well Fast Thermal Cycler System (Applied Biosystem) with a heated lid. Plates were allowed to cool to RT. Subsequently, 2 μl of 100 mM iodoacetamide were added per well to derivatize cysteine residues. Plates were then sealed and vortexed for 2 min in the dark and incubated for 30 min at 37°C in a thermal cycler with a heated lid. 90 μl of 50 mM ammonium bicarbonate pH 7.8 were added, followed by the addition of 10 μl of trypsin at 0.02 μg / ml. Samples were trypsin–digested overnight at 37°C in a thermal cycler with heated lid. […] Samples were desalted under vacuum using an Oasis HLB 96–well (30 μm particle size, 5 mg sorbent / well) reverse phase cartridge according to the manufacturer’s instructions and eluted with 170 μl of 90% acetonitrile, 0.1% formic acid. Samples were dried down with a flow of nitrogen at 40°C, left to cool to RT and re–suspended in 40 μl 5% acetonitrile, 0.1% formic acid on a plate shaker set to 1400 rpm for 5 min. Plates were centrifuged at 4,000 rpm for 10 min and 2 times 12 μl / well of supernatant were transferred into separate 96–well plates (Greiner Bio–One), sealed and stored at 4°C until analyzed by MS / MS.
(§3) Surrogate tryptic peptides were chosen for detection of COL1 (COL1A1), α–SMA (ACTA) and tubulin (TBA1A1) and crude synthetic peptides were purchased from Thermo Fischer. After several rounds of optimization following standard workflows, […] (COL1 / COL1A1), […] (α–SMA / ACTA) and […] LC–MS / MS analysis was performed on a RapidFire™ RF360 system (Agilent Technologies) coupled to an API 5500 (ABSciex) with positive ion electrospray ionization. […] Detection was performed using multiple reaction monitoring (MRM) mode to monitor parent⟶product ion transitions (m / z). […] The source parameters were curtain gas (CUR) nitrogen: 20 psig; collision gas (CAD): 7 psig; ion source gas 1: 50.0 psig; ion source gas 2: 50.0 psig; ion spray voltage (IS): 5500 V; turbo heater temperature (TEM): 600°C; entrance potential (EP): 10V. Peak areas for COL1A1 and ACTA were normalized by dividing by TBA1A peak area.
(§4) To identify compounds with potential to revert differentiated myofibroblasts to fibroblasts the assay procedures were modified. After 24 h starvation, NHLF cells were stimulated with 5 ng / ml TGF–β1 for 24 h. At t = 24 h TGF–β1 was removed and either vehicle (DMSO) or compounds were added and incubated with the cells for a further 72 h.

[2] = system: α–SMA protein in TGF–β1–induced NHLF myofibroblasts; experiment: MS/MS α–SMA, NHLF myofibroblast reversal assay; assay type: cell-based, human; conditions: Homo sapiens
Method: as §1, §2, §3, §4

[3] = system: normal human lung fibroblasts (NHLF); experiment: Nuclear count in the HCA, standard assay; assay type: cell-based; conditions: standard HCA, NHLF, 5 ng/ml TGF–β1, 48 h, read-out: Nuclear count IC50
Outline: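 NHLF starved 24 h in serum-free basal medium with 0.1% BSA, then given compounds together with 5 ng/ml TGF-β1 for 48 h (0.6% DMSO). Methanol-fixed cells imaged for DAPI, α-SMA and FN; an SVM trained on ±TGF-β1 controls classified each cell, giving per-well % myofibroblast differentiation and nuclear counts.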

[4] = system: TGF–β1–induced NHLF myofibroblasts; experiment: cells; assay type: cell-based
Method: To measure dynamic cell shape and adhesion changes during fibrotic transdifferentiation, NHLF were seeded at a density of 20,000 cells per well in FGM–2 growth medium (Lonza) containing 100 units / ml of penicillin and 100 μg / ml of streptomycin into E–plates with continued impedance signal measurement (xCELLigence system, Roche Applied Science). After overnight growth, the medium was exchanged for FBM (Lonza) supplemented with 100 units / ml of penicillin and 100 μg / ml of streptomycin and 0.1% faf BSA and cells were starved for 32 h. Compound dilution series were added and myofibroblast transition was induced by adding TGF–β1 at a concentration of 5 ng / ml, followed by continued impedance sampling for up to 48 h. For data analysis, impedance raw traces were normalized to the time point of compound addition and the baseline response (DMSO, non–TGF–β1 treated cells) was subtracted. In some cases, impedance values at defined time points were used to generate concentration–response curves to determine compound potency and efficacy using GraphPad Prism software version 7 (GraphPad Software Inc).
as §4

[5] = NHLF pre–stimulated 24 h with 5 ng/ml TGF–β1, representative experiment, S7 Fig E, read-out: IC50, reversal of COL1 (curve of a single experiment)
[6] = reversal assay: 24 h 5 ng/ml TGF–β1, washed, 72 h compound, normalized to tubulin, read-out: MS / MS COL1 IC50
[7] = reversal assay: 24 h 5 ng/ml TGF–β1, washed, 72 h compound, normalized to tubulin, read-out: MS / MS α–SMA IC50
[8] = reversal assay: 24 h 5 ng/ml TGF–β1, washed, then compound, impedance data at t = 20 h
[9] = NHLF pre–stimulated 24 h with 5 ng/ml TGF–β1, representative experiment, S7 Fig D, read-out: IC50, reversal of α–SMA (curve of a single experiment)

**Q.** `CCCCC[C@H](O)/C=C/[C@H]1[C@H](O)CC(=O)[C@@H]1CCCCCCC(=O)O` [Alprostadil] was tested. Which IC50 [1, 5] did it give?
**A.** 2 nM

**Q.** And the IC50 [1, 6]?
**A.** 1.5 ± 0.7 nM

**Q.** And the IC50 [2, 7]?
**A.** 1 nM

**Q.** What about the IC50 ([3]; Homo sapiens, Fibroblast, 48 h) of the same compound?
**A.** > 25000 nM

**Q.** What about the IC50 [3] of the same compound?
**A.** > 50000 nM

**Q.** What about the IC50 [4, 8] of the same compound?
**A.** 0.9 ± 0.2 nM

**Q.** With `C[C@]12CC[C@H](O)C[C@H]1CC[C@@H]1[C@@H]2C[C@@H](O)[C@]2(C)[C@@H](C3=CC(=O)OC3)CC[C@]12O` [Digoxigenin] as the compound, how does the IC50 [1, 6] read?
**A.** 54 nM

**Q.** And the IC50 [2, 7]?
**A.** 48 nM

**Q.** What about the IC50 ([3]; Homo sapiens, Fibroblast, 48 h) of the same compound?
**A.** > 25000 nM

**Q.** What about the IC50 [3] of the same compound?
**A.** 19000 nM

**Q.** And the IC50 [4, 8]?
**A.** 140 nM

**Q.** Which results are given for `Cc1cccc(-c2[nH]c(CNc3ccccc3F)nc2-c2ccc3ncnn3c2)n1` [EW–7197]?
**A.** IC50 [1, 5]: 103 nM; IC50 [1, 6]: 82 ± 30 nM; IC50 [2, 9]: 51 nM; IC50 [2, 7]: 73 ± 31 nM; IC50 ([3]; Homo sapiens, Fibroblast, 48 h): > 25000 nM; IC50 ([4]; Homo sapiens, reversal assay, impedance at t = 72 h post TGF–β1, n = 2): 47 ± 1 nM; IC50 [4, 8]: > 10000 nM

**Q.** `CC(C)(C)c1ccc(CN(Cc2cccc(OCC(=O)O)c2)S(=O)(=O)c2cccnc2)cc1` [Evatanepag] was tested. Which IC50 [1, 6] did it give?
**A.** 24 nM

**Q.** And the IC50 [2, 7]?
**A.** 16 nM

**Q.** What about the IC50 ([3]; Homo sapiens, Fibroblast, 48 h) of the same compound?
**A.** > 50000 nM

**Q.** And the IC50 [4, 8]?
**A.** 14 nM

**Q.** Which IC50 [1, 5] does the source give for `O=C(CC1NCCCC1O)Cn1cnc2cc(Br)c(Cl)cc2c1=O` (centres unmarked) [Halofuginone] here?
**A.** 59 nM

**Q.** What about the IC50 [1, 6] of the same compound?
**A.** 116 ± 81 nM

**Q.** What about the IC50 [2, 9] of the same compound?
**A.** 40 nM

**Q.** What about the IC50 [2, 7] of the same compound?
**A.** 102 ± 87 nM

**Q.** And the IC50 ([3]; Homo sapiens, Fibroblast, 48 h)?
**A.** > 46000 nM

**Q.** And the cytotoxic concentration ([4]; human, 72 h)?
**A.** ≥ 10’000 nM

**Q.** What about the IC50 [4, 8] of the same compound?
**A.** > 1000 nM

**Q.** With `COC(=O)c1ccc2c(c1)NC(=O)/C2=C(\Nc1ccc(N(C)C(=O)CN2CCN(C)CC2)cc1)c1ccccc1` [Nintedanib] as the compound, how does the IC50 [1, 6] read?
**A.** 626 nM

**Q.** And the IC50 [2, 7]?
**A.** > 10000 nM

**Q.** What about the IC50 ([3]; Homo sapiens, Fibroblast, 48 h) of the same compound?
**A.** 1400 nM

**Q.** What about the IC50 [4, 8] of the same compound?
**A.** > 10000 nM

**Q.** Which results are given for `CCCCC[C@H](O)/C=C/[C@H]1[C@H](O)CC(=O)[C@@H]1C/C=C\CCCC(=O)O` [PGE2, prostaglandin E2]?
**A.** IC50 [1, 6]: 0.4 nM; IC50 [2, 9]: 0.82 nM; IC50 [2, 7]: 0.8 nM; IC50 ([3]; Homo sapiens, Fibroblast, 48 h): > 2500 nM; IC50 [4, 8]: 0.7 nM
